Structures can show the parent of a compound that is named as a salt. Where two headings read alike, the source gives them in different places.
Tested on: Mycobacterium tuberculosis H37Rv
Experiment: Mycobacterium tuberculosis H37Rv Inhibition Assay
Format: cell-based
Settings: ATCC 25618 / H37Rv, read-out: MIC value

SMILES: O=c1cnc2ccc(=O)n3c2n1CC[C@H]3CN1CCC(NCc2cc3c(cc2F)OCCO3)CC1 [Example 16, (6S)-6-[(4-{[(7-Fluoro-2,3-dihydro-1,4-benzodioxin-6-yl)methyl]amino}-1-piperidinyl)methyl]-5,6-dihydro-3H,4H,7H-1,3a,6a-triazaphenalene-3,7-dione dihydrochloride]
- MIC: > 4 µg/mL

SMILES: O=C1CSc2ccc(CNC3CCN(CC4CCn5c(=O)cnc6ccc(=O)n4c65)CC3)nc2N1 (stereo not drawn) [Example 4, 6-[(4-{[(3-oxo-3,4-dihydro-2H-pyrido[3,2-b][1,4]thiazin-6-yl)methyl]amino}-1-piperidinyl)methyl]-5,6-dihydro-3H,4H,7H-1,3a,6a-triazaphenalene-3,7-dione dihydrochloride]
- MIC: < 400 µg/mL

SMILES: O=c1ccc2ncc(=O)n3c2n1CCC3CN1CCC(NCc2cc3c(cn2)OCS3)CC1 (stereo not drawn) [Example 8, 4-({4-[([1,3]Oxathiolo[5,4-c]pyridin-6-ylmethyl)amino]-1-piperidinyl}methyl)-5,6-dihydro-3H,4H,7H-1,3a,6a-triazaphenalene-3,7-dione dihydrochloride]
- MIC: > 4 µg/mL

SMILES: O=c1ccc2ncc(=O)n3c2n1CC[C@H]3CN1CCC(NCc2cc3c(cn2)OCCS3)CC1 [Example 9, (4S)-4-({4-[(2,3-Dihydro[1,4]oxathiino[2,3-c]pyridin-7-ylmethyl)amino]-1-piperidinyl}methyl)-5,6-dihydro-3H,4H,7H-1,3a,6a-triazaphenalene-3,7-dione dihydrochloride]
- MIC: > 4 µg/mL

SMILES: O=c1ccc2ccc(=O)n3c2n1CCC3CN1CCC(NCc2cc3c(cn2)OCS3)CC1 (stereo not drawn) [Example 11, 5-({4-[([1,3]Oxathiolo[5,4-c]pyridin-6-ylmethyl)amino]-1-piperidinyl}methyl)-6,7-dihydro-3H,5H,9H-pyrimido[1,2,3-ij]-1,8-naphthyridine-3,9-dione dihydrochloride]
- MIC: < 4 µg/mL

SMILES: Cl.O=c1cnc2ccc(=O)n3c2n1CC[C@H]3CN1CCC(NCc2ccc3c(c2)OCCO3)CC1 [Example 17B, (6S)-6-({4-[(2,3-Dihydro-1,4-benzodioxin-6-ylmethyl)amino]-1-piperidinyl}methyl)-5,6-dihydro-3H,4H,7H-1,3a,6a-triazaphenalene-3,7-dione hydrochloride]
- MIC (H37Rv strain (ATCC25618), Middlebrook 7H9+ADC, resazurin fluorescence): < 4 µg/mL

SMILES: O=c1cnc2ccc(=O)n3c2n1CCC3CN1CCC(NCc2cc3c(cn2)OCS3)CC1 (stereo not drawn) [Example 2, 6-({4-[([1,3]Oxathiolo[5,4-c]pyridin-6-ylmethyl)amino]-1-piperidinyl}methyl)-5,6-dihydro-3H,4H,7H-1,3a,6a-triazaphenalene-3,7-dione dihydrochloride]
- MIC: > 4 µg/mL

SMILES: N#Cc1cc(CNC2CCN(C[C@@H]3CCn4c(=O)cnc5ccc(=O)n3c54)CC2)cc2c1OCCO2 [Example 15, 7-{[(1-{[(6S)-3,7-Dioxo-5,6-dihydro-3H,4H,7H-1,3a,6a-triazaphenalen-6-yl]methyl}-4-piperidinyl)amino]methyl}-2,3-dihydro-1,4-benzodioxin-5-carbonitrile dihydrochloride]
- MIC: < 4 µg/mL

SMILES: O=c1cnc2ccc(=O)n3c2n1CCC3CN1CCC(NCc2cc3c(cn2)OCCO3)CC1 (stereo not drawn) [Example 1, 6-([4-[(2,3-Dihydro[1,4]dioxino[2,3-c]pyridin-7-ylmethyl)amino]-1-piperidinyl]methyl)-5,6-dihydro-3H,4H,7H-1,3a,6a-triazaphenalene-3,7-dione dihydrochloride]
- MIC: > 4 µg/mL

Reference: patent US20110009394A1, “TRICYCLIC NITROGEN COMPOUNDS AND THEIR USE AS ANTIBACTERIAL AGENTS” (Glaxo Group Limited, priority 2008, published 2011)
